The subject of data set [1] is Human umbilical endothelial cells (HUVEC). As to the kind of experiment: Inhibition of VEGF165-stimulated HUVEC proliferation (3H-thymidine incorporation). In kind it is cell-based. Particulars: HUVEC proliferation stimulated with 5 ng/ml VEGF165 and 10 μg/ml heparin, 76 h + 16 h 3H-thymidine. The protocol:
Human umbilical endothelial cells (HUVEC) were cultivated in IMDM (Gibco BRL), supplemented with 10% foetal calf serum (FBS) (Sigma), 50 μM of β-mercaptoethanol (Fluka), standard antibiotics, 15 μg/ml of endothelial cell growth factor (ECGS, Collaborative Biomedical Products) and 100 μg/ml of heparin (Sigma) on gelatine-coated culture dishes (0.2% gelatine, Sigma) at 37° C., under 5% CO2 in a water-saturated atmosphere.
In order to investigate the inhibitory activity of the compounds according to the invention the cells were “starved” for 16 hours, i.e. kept in culture medium without growth factors (ECGS+heparin). The cells were detached from the culture dishes using trypsin/EDTA and washed once in serum-containing medium. Then they were seeded out in amounts of 2.5×10^3 cells per well.
The proliferation of the cells was stimulated with 5 ng/ml of VEGF165 (vascular endothelial growth factor; H. Weich, GBF Braunschweig) and 10 μg/ml of heparin. As a control, 6 wells in each dish were not stimulated.
The compounds according to the invention were dissolved in 100% dimethylsulphoxide and added to the cultures in various dilutions as triple measurements, the maximum dimethyl sulphoxide concentration being 0.3%.
The cells were incubated for 76 hours at 37° C., then for a further 16 hours ^3H-thymidine (0.1 μCi/well, Amersham) was added in order to determine the DNA synthesis. Then the radioactively labelled cells were immobilised on filter mats and the radioactivity incorporated was measured in a β-counter. In order to determine the inhibitory activity of the compounds according to the invention the mean value of the non-stimulated cells was subtracted from the mean value of the factor-stimulated cells (in the presence or absence of the compounds according to the invention).
The relative cell proliferation was calculated as a percentage of the control (HUVEC without inhibitor) and the concentration of active substance which inhibits the proliferation of the cells by 50% (IC50) was determined.

Data set [2] can be described thus: Tolerance test on mice (oral LD50). The following applies: mouse, in vivo, read-out: approximate oral LD50. The protocol: In addition the compound of Example 1 (6) was tested on mice for its tolerance. The approximate oral LD50 for this compound is over 1,000 mg/kg. The compounds of general formula I are therefore well tolerated.

SMILES strings stand for the structures.

The source of these data is patent US6794395B1, “Substituted indolinones, their manufacture and their use as medicaments” (Boehringer Ingelheim Pharma GmbH & Co. KG, priority 1999, dated 2004).

Regarding `Nc1ccc2c(c1)NC(=O)/C2=C(\Nc1ccc(CN2CCCCC2)cc1)c1ccccc1` [Example 4, 6-amino-3-(Z)-{1-[4-(piperidin-1-yl-methyl)-anilino]-1-phenyl-methylidene}-2-indolinone], in data set [1], the IC50 was determined as 40 nM.

Consider `COc1cc2c(cc1OC)/C(=C(/Nc1ccc(N(CCCN(C)C)C(C)=O)cc1)c1ccccc1)C(=O)N2` [1 (18), 3-(Z)-(1-{4-[N-acetyl-N-(3-dimethylamino-propyl)-amino]-anilino}-1-phenyl-methylidene)-5,6-dimethoxy-2-indolinone], for which the IC50 in data set [1] worked out at 40 nM.

In the case of `CC/C(Nc1ccc(N(C)C(=O)CN(C)C)cc1)=C1/C(=O)Nc2cc(OC)c(OC)cc21` [1 (50), 3-(Z)-{1-[4-(N-dimethylaminomethylcarbonyl-N-methylamino)-anilino]-1-ethyl-methylidene}-5,6-dimethoxy-2-indolinone], in data set [1], the IC50 came to 830 nM.

Turning to `COc1cc2c(cc1OC)/C(=C(/Nc1ccc(N(C)C(=O)CN(C)C)cc1)c1ccccc1)C(=O)N2` [1 (8), 3-(Z)-{1-[4-(N-dimethylaminomethylcarbonyl-N-methyl-amino)-anilino]-1-phenyl-methylidene}-5,6-dimethoxy-2-indolinone], the IC50 in data set [1] worked out at 50 nM.

Take `COc1cc2c(cc1OC)/C(=C(/Nc1ccc(N(CCN(C)C)C(C)=O)cc1)c1ccccc1)C(=O)N2` [1 (17), 3-(Z)-(1-{4-[N-acetyl-N-(2-dimethylamino-ethyl)-amino]-anilino}-1-phenyl-methylidene)-5,6-dimethoxy-2-indolinone]: the IC50 in data set [1] turned out to be 40 nM.

Turning to `COc1cc2c(cc1OC)/C(=C(/Nc1ccc(CN3CCCCC3)cc1)c1ccccc1)C(=O)N2` [Example 1, 3-(Z)-{1-[4-(piperidin-1-yl-methyl)-anilino]-1-phenyl-methylidene}-5,6-dimethoxy-2-indolinone], the IC50 in data set [1] is 30 nM.

For `COc1cc2c(cc1OC)/C(=C(/Nc1ccc(CCN3CCC(C(=O)N(C)C)CC3)cc1)c1ccccc1)C(=O)N2` [Example 3, 3-(Z)-(1-{4-[2-(4-dimethylcarbamoyl-piperidin-1-yl)-ethyl]-anilino}-1-phenyl-methylidene)-5,6-dimethoxy-2-indolinone], the IC50 in data set [1] worked out at 50 nM.

Regarding `COc1cc2c(cc1OC)/C(=C(/Nc1ccc(CN(C)Cc3ccccc3)cc1)c1ccccc1)C(=O)N2` [1 (3), 3-(Z)-(1-{4-[(N-benzyl-N-methyl-amino)-methyl)-anilino}-1-phenyl-methylidene)-5,6-dimethoxy-2-indolinone], the IC50 in data set [1] was determined as 270 nM.

On to `COc1cc2c(cc1OC)/C(=C(/Nc1ccc(CN(C)C)cc1)c1ccccc1)C(=O)N2` [Example 1 (6), 3-(Z)-(1-(4-(dimethylaminomethyl)-anilino]-1-phenyl-methylidene}-5,6-dimethoxy-2-indolinone], for which, in data set [2], the LD50 is greater than 1000 mg/kg. Further, the IC50 in data set [1] was determined as 20 nM.
